{"source": "patent US9981004B2", "about": "“Inhibition of TREM receptor signaling with peptide variants” (SignaBlok, Inc., priority 2009, dated 2018)", "experiment": "Solubility of CP and CP-A peptides", "type": "physicochemical", "source_text": "A variety of solvents and carriers can be tested to improve their solubility. Solvents and/or carriers that improve solubility of CP and CP-A include, but are not limited to, ethanol, dimethylsulphoxide (DMSO), dimethyl formamide (DMF), and trifluoracetic acid (TFA). When using DMSO as a solvent, the final concentration used in the cell function experiments may range from 0.063%-0.250%. Stock solutions of CP and CP-A can be prepared in DMSO and used at a 1:2000, 1:1000, or 1:400 dilution. In one embodiment, drug delivery systems (i.e., for example, lipid vesicles) can be used to increase solubility and bioavailability of CP and CP-A.", "data": [{"substance": "H-GFLSASLVF-OH [CP-A, NH2-Gly-Phe-Leu-Ser-Ala-Ser-Leu-Val-Phe-OH]", "values": [{"measurement": "solubility in aqueous solutions", "result": "insoluble in aqueous solutions"}]}, {"substance": "H-GFLSKSLVF-OH [CP, NH2-Gly-Phe-Leu-Ser-Lys-Ser-Leu-Val-Phe-OH]", "values": [{"measurement": "solubility in aqueous solutions", "result": "insoluble in aqueous solutions"}]}]}
